One may read the IC50 as the point on the concentration scale where inhibition reaches its midpoint. A low value points to higher potency. What is called melting point is the temperature of the solid-liquid transition.

From patent publication US10207989B2, “Substituted alkyl diaryl derivatives, methods of preparation and uses” (TEMPLE UNIVERSITY—OF THE COMMONWEALTH SYSTEM OF HIGHER …, priority 2012, dated 2019) come the findings set out here.

Series [1] concerns K562 (chronic myelogenous leukemia; leukemia cell line +ve for Bcr-Abl). Description: Cancer cell assay, tumor cells K562. The format is cell-based. As to conditions: Homo sapiens, compound in DMSO 0.01 μM to 100 μM, examined 96 hours later, viable cells by trypan blue exclusion. Here is the method:
(§1) The effect of the compounds of the invention on tumor cells was determined by the assay described by Latham et al., Oncogene 12:827-837 (1996). Tumor cells K562 (chronic myelogenous leukemia; leukemia cell line +ve for Bcr-Abl) or DU145 (prostate cancer) were plated in 12-well dishes at a cell density of 2.5×10^4 cells well. The plated cells were treated 24 hours later with a compound of the invention dissolved in DMSO at multiple concentrations ranging from 0.01 μM to 100 μM. The plates were examined 96 hours later under an inverted microscope, Olympus CK-2 using a 10× objective, and compound activity was noted by physical observation. When necessary, the total number of viable cells was determined by trypsinizing the wells and counting the number of viable cells, as determined by trypan blue exclusion, using a hemacytometer.

In a further series the test system is DU145 (prostate cancer). Description: Cancer cell assay, tumor cells DU145. As to conditions: Homo sapiens, examined 96 hours later, viable cells by trypan blue exclusion. The format is cell-based. On the procedure: as §1
Where [2] appears, read: DU-145, compound in DMSO 0.01 μM to 100 μM.

`COc1ccc(CCNC(=O)c2ccc(OC)c(N)c2)cc1` [Example 33, 3-amino-4-methoxy-N-(4-methoxyphenethyl)benzamide]: the IC50 (in series [1]; in the series with DU145 (prostate cancer) (setting [2])) was 75 µM each time.

`COc1cc(OC)c(CCS(=O)(=O)Cc2ccc(OC)c(NCC(=O)O)c2)c(OC)c1` [Example 4]: the melting point was 146 to 150 °C. Moreover, half-maximal inhibition in series [1] (IC50) was put at 0.5 µM. For the same compound, the IC50 in the series with DU145 (prostate cancer) (setting [2]) was 0.25 µM.

With `COc1ccc(S(=O)(=O)NCCc2c(OC)cc(OC)cc2OC)cc1` [Example 28, 4-methoxy-N-(2,4,6-trimethoxyphenethyl)benzenesulfonamide], the half-inhibitory concentration (IC50) (in series [1]; in the series with DU145 (prostate cancer) (setting [2])) was more than 10 µM each time.

For the compound `COc1cc(OC)c(CCNS(=O)(=O)c2ccc(C)cc2)c(OC)c1` [Example 29, 4-methyl-N-(2,4,6-trimethoxyphenethyl)benzenesulfonamide], the IC50 (in series [1]; in the series on DU145 (prostate cancer) (setting [2])) was more than 10 µM in each case.

Take `COc1ccc(CCNS(=O)(=O)c2ccc(OC)cc2)cc1` [Example 27, 4-methoxy-N-(4-methoxyphenethyl)benzenesulfonamide]: the IC50 (in series [1]; in the series with DU145 (prostate cancer) (setting [2])) was 75 µM throughout.

For `COc1cc(OC)c(CCS(=O)(=O)Nc2ccc(OC)c(N)c2)c(OC)c1` [Example 19, N-(3-Amino-4-methoxyphenyl)-2-(2,4,6-trimethoxyphenyl)ethanesulfonamide], the figures for the half-maximal inhibitory concentration (IC50) (in series [1]; in the series with DU145 (prostate cancer) (setting [2])) were 0.003 µM and 0.005 µM, respectively.

Take `COc1cc(CSCCc2ccc(OC)c(OC)c2)ccc1O` [Example 37, 4-(((3,4-dimethoxyphenethyl)thio)methyl)-2-methoxyphenol]: the half-inhibitory concentration (IC50) in series [1] was 5 µM; in the series on DU145 (prostate cancer) (setting [2]), 15 µM.

In the case of `COc1ccc(CCNS(=O)(=O)c2ccc(OC)c([N+](=O)[O-])c2)cc1` [Example 23, 4-methoxy-N-(4-methoxyphenethyl)-3-nitrobenzenesulfonamide], the IC50 (in series [1]; in the series on DU145 (prostate cancer) (setting [2])) was 35 µM in each case.

Regarding `COc1cc(CS(=O)(=O)CCc2ccc(OC)c(OC)c2)ccc1O` [Example 38, 4-(((3,4-dimethoxyphenethyl)sulfonyl)methyl)-2-methoxyphenol], the IC50 (in series [1]; with DU145 (prostate cancer) (setting [2])) was more than 10 µM in each case.

Consider `COc1cc(OC)c(CCC(=O)Nc2ccc(OC)c(N)c2)c(OC)c1` [Example 7, N-(3-Amino-4-methoxyphenyl)-3-(2,4,6-trimethoxyphenyl)propanamide], for which the half-maximal inhibitory concentration (IC50) in series [1] was 0.15 µM; in the series with DU145 (prostate cancer) (setting [2]), 5 µM.

In the case of `COc1ccc(CCNS(=O)(=O)c2ccc(C)cc2)cc1` [Example 22, N-(4-methoxyphenethyl)-4-methylbenzenesulfonamide], the IC50 (in series [1]; in the series on DU145 (prostate cancer) (setting [2])) was 60 µM each time.

Take `COc1cc(OC)c(CCNS(=O)(=O)c2ccc(OC)c([N+](=O)[O-])c2)c(OC)c1` [Example 25, 4-methoxy-3-nitro-N-(2,4,6-trimethoxyphenethyl)benzenesulfonamide]: the IC50 (in series [1]; in the series on DU145 (prostate cancer) (setting [2])) was 35 µM in each case.

`COC(=O)CN(CC(=O)OC)c1cc(CS(=O)(=O)CCc2c(OC)cc(OC)cc2OC)ccc1OC` [Example 9, Dimethyl 2,2′-((2-methoxy-5-(((2,4,6-trimethoxyphenethyl)sulfonyl)methyl)phenyl)azanediyl)diacetate] gave a melting point of 86 to 88 °C. Moreover, the 50% inhibitory concentration (IC50) in series [1] was found to be 2 µM. In the series with DU145 (prostate cancer) (setting [2]), it took 2 µM to reach half-maximal inhibition (IC50).

`COc1cc(OC)c(CCNC(=O)c2ccc(OC)c(N)c2)c(OC)c1` [Example 35, 3-amino-4-methoxy-N-(2,4,6-trimethoxyphenethyl)benzamide]: the IC50 in series [1] is 0.5 µM; in the series with DU145 (prostate cancer) (setting [2]), 5 µM.

For the compound `O=C(O)c1ccc(CCS(=O)(=O)Cc2ccc(Cl)cc2)cc1` [Example 6, 4-(2-((4-Chlorobenzyl)sulfonyl)ethyl)benzoic acid], the melting point was 265 to 267 °C. The compound further gave a 50% inhibitory concentration (IC50) in series [1] of 10 µM. Also, the half-inhibitory concentration (IC50) in the series with DU145 (prostate cancer) (setting [2]) was 10 µM.

For the compound `COc1ccc(C(=O)NCCc2c(OC)cc(OC)cc2OC)cc1` [Example 30, 4-methoxy-N-(2,4,6-trimethoxyphenethyl)benzamide], the half-maximal inhibitory concentration (IC50) in series [1] turned out to be 5 µM; in the series on DU145 (prostate cancer) (setting [2]) it was 15 µM.

Regarding `COC(=O)CNc1cc(CS(=O)(=O)CCc2c(OC)cc(OC)cc2OC)ccc1OC` [Example 8], the IC50 (in series [1]; in the series with DU145 (prostate cancer) (setting [2])) was 0.15 µM throughout.

In the case of `COc1ccc(CCS(=O)(=O)Nc2c(OC)cc(OC)cc2OC)cc1` [Example 36, 2-(4-methoxyphenyl)-N-(2,4,6-trimethoxyphenyl)ethanesulfonamide], the figures for the IC50 (in series [1]; with DU145 (prostate cancer) (setting [2])) were 2.5 µM and 15 µM, respectively.

Take `COc1cc(OC)c(CCS(=O)(=O)Cc2ccc(OC)c(NCC(=O)O)c2)c(OC)c1` [Example 21, 2 ((2-methoxy-5-(((2,4,6-trimethoxyphenethyl)sulfonyl)methyl)phenyl)amino)acetate]: the IC50 was 0.04 µM in series [1] (K562, 96 h) and 0.15 µM in the series on DU145 (prostate cancer) (DU-145, 96 h, compound in DMSO 0.01 μM to 100 μM).

Consider `COc1cc(OC)c(CCNC(=O)c2ccc(OC)c([N+](=O)[O-])c2)c(OC)c1` [Example 34, 4-methoxy-3-nitro-N-(2,4,6-trimethoxyphenethyl)benzamide], for which the IC50 (in series [1]; in the series with DU145 (prostate cancer) (setting [2])) was 75 µM throughout.

As for `COc1cc(OC)c(CCS(=O)(=O)Cc2ccc(OC)c(N)c2)c(OC)c1` [Example 3, 2-Methoxy-5-(((2,4,6-trimethoxyphenethyl)sulfonyl)methyl)aniline], the melting point lay in the range of 128 to 130 °C. This compound also came in with an IC50 in series [1] of 0.0025 µM. The compound further registered a concentration for half-maximal inhibition (IC50) in the series with DU145 (prostate cancer) (setting [2]) of 0.003 µM.

Turning to `COc1ccc(CS(=O)(=O)CCc2c(OC)cc(OC)cc2OC)cc1` [Example 20, 1,3,5-Trimethoxy-2-(2-((4-methoxybenzyl)sulfonyl)ethyl)benzene], the IC50 was 0.05 µM in series [1] and 0.15 µM in the series on DU145 (prostate cancer) (setting [2]).

As to `COc1cc(OC)c(CCS(=O)(=O)Cc2ccc(OC)c(O)c2)c(OC)c1` [Example 5, 2-Methoxy-5-(((2,4,6-trimethoxyphenethyl)sulfonyl)methyl)phenol], the melting point fell in the range of 136 to 138 °C. In series [1], this compound gave a half-maximal inhibitory concentration (IC50) of 0.003 µM. The compound also showed a half-maximal inhibitory concentration (IC50) in the series with DU145 (prostate cancer) (setting [2]) of 0.0075 µM.

`O=S(=O)(CCc1ccc(F)cc1)Cc1ccc(Cl)cc1` [Example 2, 1-Chloro-4-(((4-fluorophenethyl)sulfonyl)methyl)benzene]: the melting point is 142 to 144 °C. In series [1], half-maximal inhibition (IC50) was put at 1.5 µM. This compound showed an IC50 in the series with DU145 (prostate cancer) (setting [2]) of 1.5 µM.

Take `COc1cc(OC)c(CCNS(=O)(=O)c2ccc(OC)c(N)c2)c(OC)c1` [Example 26, 3-amino-4-methoxy-N-(2,4,6-trimethoxyphenethyl)benzenesulfonamide]: the 50% inhibitory concentration (IC50) in series [1] worked out at 0.75 µM; in the series with DU145 (prostate cancer) (setting [2]), 5 µM.

As to `COc1ccc(CCNC(=O)c2ccc(OC)cc2)cc1` [Example 31, 4-methoxy-N-(4-methoxyphenethyl)benzamide], the values for the IC50 (in series [1]; with DU145 (prostate cancer) (setting [2])) were 100 µM and 75 µM, respectively.

For `COc1ccc(CCNC(=O)c2ccc(OC)c([N+](=O)[O-])c2)cc1` [Example 32, 4-methoxy-N-(4-methoxyphenethyl)-3-nitrobenzamide], the IC50 (in series [1]; in the series with DU145 (prostate cancer) (setting [2])) was 75 µM in each case.
